The conditions of series [1]: one drop 0.0015% solution once daily into each eye, cited from earlier work.
The conditions of series [2]: cited from earlier work.
The conditions of series [3]: cited from earlier work. The source holds these as a separate data set.
For series [4] the following is noted: cited from earlier work. This is another data set of the same source.
For series [5], the system named is subject with a history of migraine headaches. Kind of series: Migraine case reports, topical administration to the eye(s). The conditions noted are these: Example 1: person, 0.0004% single drop in both eyes once per day in the evening, 30 days. It is filed as in vivo, human. As for the experimental part:
A subject was treated with ocular administration of travoprost 0.0004% once per day as a single drop in both eyes in the evening. The subject reported that they had no migraines after being on therapy for 30 days.
A person with a fifteen year history of severe migraine headaches refractory to multiple therapies, started treatment with TRAVATAN Z® (travoprost ophthalmic solution) administered topically to one eye daily.
A person with a history of migraine headaches (one per week) was started on daily topical administration of the prostaglandin, XALATAN® (latanoprost ophthalmic solution), to both eyes daily.

[6] abbreviates: blood, days 7 and 14, 0.03% once daily to both eyes.

Where two headings read alike, the source gives them in different places.

Consider `O=C(O)CCC/C=C\C[C@@H]1[C@@H](/C=C/C(F)(F)COc2ccccc2)[C@H](O)C[C@@H]1O` [tafluprost acid], for which, in series [1] (Day 1), the “mean plasma AUC estimate of tafluprost acid” value was 394 pg·min/mL and the “mean plasma Cmax of tafluprost acid” value is 0.026 ng/mL. In series [1] (Day 8), the “mean plasma AUC estimate of tafluprost acid” value was 432 pg·min/mL and the “mean plasma Cmax of tafluprost acid” value was 0.027 ng/mL. Also, the “median time at which plasma concentrations of tafluprost acid peaked” value in series [1] (healthy volunteers, both Days 1 and 8) was 10 min.

As for `O=C(O)CCC/C=C\C[C@@H]1[C@@H](CC[C@@H](O)CCc2ccccc2)[C@H](O)C[C@@H]1O` [acid of latanoprost], in series [2] (after local administration), the “time during which the acid can be measured in aqueous humor” value is no more than 4 h and the “time during which the acid can be measured in plasma” value is “only during the first hour”.

With `O=C(O)CCC/C=C\C[C@@H]1[C@@H](/C=C/[C@@H](O)COc2cccc(C(F)(F)F)c2)[C@H](O)C[C@@H]1O` [travoprost free acid], the “mean plasma Cmax” value in series [3] (individuals with quantifiable plasma concentrations (N=38)) is 0.018 ± 0.007 ng/mL. Moreover, the “plasma concentrations of the free acid (below quantitation limit of the assay)” value in series [3] (single drop daily in both eyes, in two-thirds of the subjects) is listed as “below 0.01 ng/ml”.

Take `CC(C)OC(=O)CCC/C=C\C[C@@H]1[C@@H](CC[C@@H](O)CCc2ccccc2)[C@H](O)C[C@@H]1O` [Latanoprost, isopropyl-(Z)7[(1R,2R,3R,5S)3,5-dihydroxy-2-[(3R)-3-hydroxy-5-phenylpentyl]cyclopentyl]-5-heptenoate, reference compound]: the distribution volume in series [2] (in humans) is 0.16 ± 0.02 L/kg.

Take `CCNC(=O)CCC/C=C\C[C@@H]1[C@@H](/C=C/[C@@H](O)CCc2ccccc2)[C@H](O)C[C@@H]1O` [Bimatoprost, (Z)-7-[(1R,2R,3R,5S)-3,5Dihydroxy-2-[(1E,3S)-3-hydroxy-5-phenyl-1-pentenyl]cyclopentyl]-5-N-ethylheptenamide]: in series [4] (setting [6]), the “mean AUCO-24 hr” value was roughly 0.09 ng·h/mL and the “mean Cmax” value is listed as “approximately 0.08 ng/mL”. For the same compound, the “distribution in human blood” value in series [4] (human blood) was “resides mainly in the plasma”. The “steady-state volume of distribution” value in series [4] (human, in vivo) was 0.67 L/kg. Also, the “blood concentration (below lower limit of detection)” value in series [4] (in most subjects within 1.5 hours after dosing, 0.03% once daily to both eyes) was less than 0.025 ng/mL. Also, the “time at which blood concentrations peaked after dosing” value in series [4] (one drop 0.03% once daily to both eyes, 15 healthy subjects, two weeks) was no more than 10 min.

As for `CC(C)OC(=O)CCC/C=C\C[C@@H]1[C@@H](/C=C/[C@@H](O)COc2cccc(C(F)(F)F)c2)[C@H](O)C[C@@H]1O` (relative stereo) [travoprost, [1R-[1α(Z),2β(1E,3R*),3α, 5α]]-7-[3,5-Dihydroxy-2-[3-hydroxy-4-[3-(trifluoromethyl)phenoxy]-1-butenyl]cyclopentyl]-5-heptenoic acid, 1-methylethylester], in series [5], the “migraines reported on therapy” value is “no migraines”.

(Values after US9913849B2, “Treatment of migraines” (Manistee Partners LLC, priority 2014, dated 2018).)
